Assay results as given in PubChem BioAssay AID256 (DTP/NCI, 2004).
Values joined by “and” are separate entries in the source; they are usually repeats but may differ in a detail not shown here. Identical values can stand only once. Toxic doses and inconclusive results are not listed.

Test system: CD2F1 mice, L1210 leukemia ip, survival T/C
Assay: NCI In Vivo Anticancer Drug Screen. Data for tumor model L1210 Leukemia (intraperitoneal) in CD2F1 (CDF1) mice
Conditions: higher = longer survival
Procedure, shortened: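 Vehicle-treated tumor-bearing mice served as controls (C) for compound-treated mice (T). Reported figure is T divided by C.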

[1] = endpoint: mean survival time, dose: 100.0 mg/kg/injection, schedule: Q04DX003 (ip), vehicle: saline with Tween-80
[2] = endpoint: mean survival time, dose: 200.0 mg/kg/injection, schedule: Q04DX003 (ip), vehicle: saline with Tween-80
[3] = endpoint: mean survival time, dose: 400.0 mg/kg/injection, schedule: Q04DX003 (ip), vehicle: saline with Tween-80
[4] = endpoint: mean survival time, dose: 6.25 mg/kg/injection, schedule: Q04DX003 (ip), vehicle: saline
[5] = endpoint: mean survival time, dose: 12.5 mg/kg/injection, schedule: Q04DX003 (ip), vehicle: saline
[6] = endpoint: mean survival time, dose: 25.0 mg/kg/injection, schedule: Q04DX003 (ip), vehicle: saline
[7] = endpoint: mean survival time, dose: 200.0 mg/kg/injection, schedule: Q04DX003 (ip), vehicle: saline
[8] = endpoint: mean survival time, dose: 100.0 mg/kg/injection, schedule: Q04DX002 (ip), vehicle: saline
[9] = endpoint: mean survival time, dose: 200.0 mg/kg/injection, schedule: Q04DX002 (ip), vehicle: saline
[10] = endpoint: mean survival time, dose: 200.0 mg/kg/injection, schedule: Q01DX009 (ip), vehicle: saline
[11] = endpoint: mean survival time, dose: 400.0 mg/kg/injection, schedule: Q01DX009 (ip), vehicle: saline
[12] = endpoint: mean survival time, dose: 100.0 mg/kg/injection, schedule: Q01DX001 (ip), vehicle: saline with Tween-80
[13] = endpoint: mean survival time, dose: 100.0 mg/kg/injection, schedule: Q01DX009 (ip), vehicle: saline with Tween-80
[14] = endpoint: mean survival time, dose: 200.0 mg/kg/injection, schedule: Q01DX009 (ip), vehicle: saline with Tween-80
[15] = endpoint: mean survival time, dose: 400.0 mg/kg/injection, schedule: Q01DX009 (ip), vehicle: saline with Tween-80
[16] = endpoint: mean survival time, dose: 200.0 mg/kg/injection, schedule: Q01DX001 (ip), vehicle: saline with Tween-80
[17] = endpoint: mean survival time, dose: 400.0 mg/kg/injection, schedule: Q01DX001 (ip), vehicle: saline with Tween-80

CCOC(=O)c1cc2c(=O)cccnc2o1
T/C (endpoint: mean survival time, dose: 75.0 mg/kg/injection, schedule: Q01DX001 (ip), vehicle: saline): 93 % of control | T/C (endpoint: mean survival time, dose: 150.0 mg/kg/injection, schedule: Q01DX001 (ip), vehicle: saline): 96 % of control | T/C (endpoint: mean survival time, dose: 300.0 mg/kg/injection, schedule: Q01DX001 (ip), vehicle: saline): 96 % of control

CC(C)C(=O)Nc1nc(OCCc2ccc([N+](=O)[O-])cc2)c2ncn(C3CC(O)C(CO)O3)c2n1 (stereo unspecified)
T/C (endpoint: median survival time, dose: 12.5 mg/kg/injection, schedule: Q01DX005 (ip), vehicle: saline with Tween-80): 101 % of control | T/C (endpoint: median survival time, dose: 25.0 mg/kg/injection, schedule: Q01DX005 (ip), vehicle: saline with Tween-80): 97 % of control | T/C (endpoint: median survival time, dose: 50.0 mg/kg/injection, schedule: Q01DX005 (ip), vehicle: saline with Tween-80): 97 % of control | T/C (endpoint: median survival time, dose: 100.0 mg/kg/injection, schedule: Q01DX005 (ip), vehicle: saline with Tween-80): 95 % of control | T/C (endpoint: median survival time, dose: 200.0 mg/kg/injection, schedule: Q01DX005 (ip), vehicle: saline with Tween-80): 86 % of control

CN1CCC(O)(C#N)CC1
T/C (endpoint: mean survival time, dose: 3.75 mg/kg/injection, schedule: Q04DX003 (ip), vehicle: saline): 102 % of control | T/C (endpoint: mean survival time, dose: 7.5 mg/kg/injection, schedule: Q04DX003 (ip), vehicle: saline): 102 % of control | T/C (endpoint: mean survival time, dose: 15.0 mg/kg/injection, schedule: Q04DX003 (ip), vehicle: saline): 100 % of control

O=C([S-])N1CCCCC1.O=C([S-])N1CCCCC1.[Ni+2]
T/C (endpoint: mean survival time, dose: 12.5 mg/kg/injection, schedule: Q01DX009 (ip), vehicle: saline with Tween-80): 96 % of control | T/C (endpoint: mean survival time, dose: 12.5 mg/kg/injection, schedule: Q04DX003 (ip), vehicle: saline sonified): 100 % of control | T/C (endpoint: mean survival time, dose: 25.0 mg/kg/injection, schedule: Q01DX009 (ip), vehicle: saline with Tween-80): 93 % of control | T/C (endpoint: mean survival time, dose: 25.0 mg/kg/injection, schedule: Q04DX003 (ip), vehicle: saline sonified): 113 % of control | T/C (endpoint: mean survival time, dose: 50.0 mg/kg/injection, schedule: Q01DX009 (ip), vehicle: saline with Tween-80): 106 % of control | T/C (endpoint: mean survival time, dose: 50.0 mg/kg/injection, schedule: Q04DX003 (ip), vehicle: saline sonified): 92 % of control

COC(=O)CC(=O)NC(C)CC1CNc2ccccc21 (stereo unspecified)
T/C [1]: 103 % of control | T/C [2]: 103 % of control | T/C [3]: 97 % of control

[Cl][Pt+2][Cl].[NH-]CC(C[NH-])(Cc1ccccc1)Cc1ccccc1
T/C (endpoint: mean survival time, dose: 3.12 mg/kg/injection, schedule: Q04DX003 (ip), vehicle: saline): 97 % of control | T/C [4]: 103 % of control and 111 % of control | T/C [5]: 115 % of control and 111 % of control | T/C [6]: 115 % of control | T/C [7]: 172 % of control

N#CS.[Co+3].[NH-]CC[NH-].[NH-]CC[NH-].[NH-]CC[SH2+]
T/C [8]: 112 % of control | T/C [9]: 104 % of control | T/C (endpoint: mean survival time, dose: 400.0 mg/kg/injection, schedule: Q04DX002 (ip), vehicle: saline): 108 % of control

NC(CC(=O)O)C(=O)O (stereo unspecified)
T/C [10]: 97 % of control | T/C [11]: 95 % of control | T/C (endpoint: mean survival time, dose: 800.0 mg/kg/injection, schedule: Q01DX009 (ip), vehicle: saline): 98 % of control

O/N=C1\CN2CCC1CC2
T/C [12]: 91 % of control

CCCCC(CC)C(=O)[O][Sn]([CH2]CCC)([CH2]CCC)[O]C(=O)C(CC)CCCC (stereo unspecified)
T/C (endpoint: mean survival time, dose: 1.5 mg/kg/injection, schedule: Q01DX009 (ip), vehicle: saline with Tween-80): 100 % of control | T/C (endpoint: mean survival time, dose: 3.0 mg/kg/injection, schedule: Q01DX009 (ip), vehicle: saline with Tween-80): 100 % of control | T/C (endpoint: mean survival time, dose: 6.0 mg/kg/injection, schedule: Q01DX009 (ip), vehicle: saline with Tween-80): 104 % of control | T/C (endpoint: mean survival time, dose: 6.25 mg/kg/injection, schedule: Q04DX003 (ip), vehicle: saline with Tween-80): 105 % of control

O=C1CCNC(=O)N1
T/C [13]: 93 % of control | T/C [1]: 106 % of control | T/C [14]: 98 % of control | T/C [2]: 101 % of control | T/C [15]: 93 % of control | T/C [3]: 95 % of control

CCN(CC)c1ccc2cc3ccc(=[N+](CC)CC)cc-3oc2c1
T/C (endpoint: mean survival time, dose: 9.0 mg/kg/injection, schedule: Q01DX010 (ip), vehicle: saline): 106 % of control

COC(=O)/C=C/C(=O)NC(N)=O
T/C [4]: 91 % of control | T/C [5]: 113 % of control | T/C [6]: 100 % of control

CN(C)N=Nc1ccc(C(F)(F)F)cc1
T/C (endpoint: mean survival time, dose: 118.0 mg/kg/injection, schedule: Q01DX009 (ip), vehicle: Klucel (hydroxypropylcellulose) (HPC)): 101 % of control | T/C (endpoint: mean survival time, dose: 177.0 mg/kg/injection, schedule: Q01DX009 (ip), vehicle: Klucel (hydroxypropylcellulose) (HPC)): 102 % of control

CCOC(=O)c1ccc(-c2ccc(C(=O)OCC)o2)o1
T/C (endpoint: mean survival time, dose: 50.0 mg/kg/injection, schedule: Q04DX002 (ip), vehicle: saline): 101 % of control | T/C [8]: 93 % of control | T/C [9]: 97 % of control

CC1=C(C)CC(C(Cl)(Cl)Cl)C([N+](=O)[O-])C1 (stereo unspecified)
T/C [1]: 98 % of control | T/C [2]: 96 % of control

CCCC/C=N/NC(=O)c1ccc[n+](C)c1
T/C (endpoint: mean survival time, dose: 100.0 mg/kg/injection, schedule: Q04DX003 (ip), vehicle: saline): 102 % of control | T/C [7]: 98 % of control | T/C (endpoint: mean survival time, dose: 400.0 mg/kg/injection, schedule: Q04DX003 (ip), vehicle: saline): 105 % of control

O=NN(CCCl)C(=O)Nc1ccc(Br)cn1
T/C (endpoint: mean survival time, dose: 20.0 mg/kg/injection, schedule: Q01DX001 (ip), vehicle: carboxymethylcellulose (CMC)): 115 % of control

O=C1CC(c2ccc(Br)cc2)N(c2ccc([As](=O)(O)O)cc2)C1=O (stereo unspecified)
T/C (endpoint: mean survival time, dose: 6.25 mg/kg/injection, schedule: Q01DX009 (ip), vehicle: Klucel (hydroxypropylcellulose) (HPC)): 95 % of control | T/C (endpoint: mean survival time, dose: 12.5 mg/kg/injection, schedule: Q01DX009 (ip), vehicle: Klucel (hydroxypropylcellulose) (HPC)): 89 % of control | T/C (endpoint: median survival time, dose: 6.25 mg/kg/injection, schedule: Q04DX003 (ip), vehicle: saline with Tween-80): 100 % of control | T/C (endpoint: median survival time, dose: 12.5 mg/kg/injection, schedule: Q04DX003 (ip), vehicle: saline with Tween-80): 106 % of control | T/C (endpoint: median survival time, dose: 25.0 mg/kg/injection, schedule: Q04DX003 (ip), vehicle: saline with Tween-80): 100 % of control

Oc1ccccc1/C=N\N=C\c1ccccc1O
T/C [12]: 97 % of control | T/C [16]: 106 % of control | T/C [17]: 100 % of control

C[C@H]1C[C@@H]2[C@H]([C@@H](O)C[C@@]3(C)[C@H]2CC[C@]3(O)C(=O)CF)[C@@]2(C)C=CC(=O)C=C12
T/C (endpoint: mean survival time, dose: 100.0 mg/kg/injection, schedule: Q01DX001 (sc), vehicle: steriod suspending solution): 98 % of control | T/C (endpoint: mean survival time, dose: 200.0 mg/kg/injection, schedule: Q01DX001 (sc), vehicle: steriod suspending solution): 101 % of control | T/C (endpoint: mean survival time, dose: 400.0 mg/kg/injection, schedule: Q01DX001 (sc), vehicle: steriod suspending solution): 108 % of control

CN(C)S(=O)(=O)C(C)(C)c1ccccc1
T/C [12]: 100 % of control | T/C [13]: 96 % of control | T/C [1]: 94 % of control | T/C [16]: 101 % of control | T/C [14]: 96 % of control | T/C [2]: 94 % of control | T/C [17]: 100 % of control | T/C [3]: 96 % of control

CC(C)OC(=O)Nc1ncn[nH]1
T/C (endpoint: mean survival time, dose: 100.0 mg/kg/injection, schedule: Q04DX002 (ip), vehicle: saline with Tween-80): 104 % of control | T/C (endpoint: mean survival time, dose: 200.0 mg/kg/injection, schedule: Q04DX002 (ip), vehicle: saline with Tween-80): 108 % of control | T/C (endpoint: mean survival time, dose: 400.0 mg/kg/injection, schedule: Q04DX002 (ip), vehicle: saline with Tween-80): 93 % of control

c1cc2nc(c1)CSCCCCCCCSC2
T/C [13]: 98 % of control | T/C [14]: 90 % of control | T/C [15]: 93 % of control

N#C[Se]C[Se]C#N
T/C (endpoint: mean survival time, dose: 6.25 mg/kg/injection, schedule: Q01DX001 (ip), vehicle: saline with Tween-80): 104 % of control

C1=CC=CN(c2ccccc2)C=C1
T/C (endpoint: mean survival time, dose: 100.0 mg/kg/injection, schedule: Q04DX003 (ip), vehicle: other): 106 % of control | T/C (endpoint: mean survival time, dose: 200.0 mg/kg/injection, schedule: Q04DX003 (ip), vehicle: other): 95 % of control | T/C (endpoint: mean survival time, dose: 400.0 mg/kg/injection, schedule: Q04DX003 (ip), vehicle: other): 97 % of control

NC(CSCc1cccs1)C(=O)O (stereo unspecified)
T/C (endpoint: mean survival time, dose: 25.0 mg/kg/injection, schedule: Q01DX009 (ip), vehicle: saline): 94 % of control | T/C (endpoint: mean survival time, dose: 50.0 mg/kg/injection, schedule: Q01DX009 (ip), vehicle: saline): 100 % of control | T/C (endpoint: mean survival time, dose: 100.0 mg/kg/injection, schedule: Q01DX009 (ip), vehicle: saline): 90 % of control | T/C [10]: 101 % of control | T/C [11]: 95 % of control
